Source: paper PMC6150226, “Inhibition of Human Kallikrein 5 Protease by Triterpenoids from Natural Sources” (Molecules : A Journal of Synthetic Chemistry and Natural …, 2017)
Read-outs that look alike come from different tables or passages of the source. Values belong to the compound of their own block, whether it stands above or below them.

Assays:
[1] = target: T1, recombinant human KLK5 (Homo sapiens, UniProt Q9Y337); experiment: KLK5 enzymatic assay (Boc-V-P-R-AMC fluorogenic substrate); format: biochemical
T1 construct: purchased R & D Systems Inc
T1 sequence (Q9Y337 23-293): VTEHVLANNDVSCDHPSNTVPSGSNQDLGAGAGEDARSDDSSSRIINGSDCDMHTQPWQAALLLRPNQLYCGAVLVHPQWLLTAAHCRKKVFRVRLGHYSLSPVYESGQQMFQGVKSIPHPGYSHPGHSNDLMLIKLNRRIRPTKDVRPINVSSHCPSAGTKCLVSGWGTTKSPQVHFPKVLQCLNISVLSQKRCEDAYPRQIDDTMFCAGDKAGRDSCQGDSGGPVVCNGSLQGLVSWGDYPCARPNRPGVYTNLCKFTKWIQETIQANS

[2] = Plasma pharmacokinetics of triterpenoids in rats after oral Jumihaidokuto (LC-MS/MS); format: in vivo; settings: rat; for Cmax: male, Sprague-Dawley, plasma
Description: Male Sprague–Dawley rats were purchased from Charles River Laboratories (Yokohama, Japan). The plasma pharmacokinetic study was performed according to the “Guidelines for the Care and Use of Laboratory Animals” of Tsumura & Co. Ethical approval for experimental procedures was obtained from the Laboratory Animal Committee of Tsumura & Co. Jumihaidokuto (JHT, Lot No. 332031900) was supplied by Tsumura & Co. (Tokyo, Japan) in the form of a powdered extract. JHT prepared in distilled water was orally administered to 16-h fasted rats at 2 g/10 mL/kg (n = 3). […] Plasma was obtained by centrifugation at 1700 g for 15 min at 4 °C and stored at −80 °C until further processing. […] Twenty-five microliters of methanol, an equal volume of atropine (2 ng/mL; Wako Pure Chemical Industries) as internal standard, and 750 µL of methanol were added to 200 µL of plasma samples, followed by mixing and centrifugation (7000× g, 5 min). For the preparation of the calibration curve, the same volumes of various concentrations of working solution were used instead of methanol. The supernatant was dried at 40 °C under a stream of nitrogen gas. The dried residue was dissolved in 50–60 μL of the initial mobile phase used for liquid chromatography–mass spectrometry with a tandem mass spectrometry system (LC-MS/MS; API4000 or Triple Quad 6500; AB Sciex, Tokyo, Japan) and then a 10- or 20-μL portion was injected into the LC-MS/MS system for the quantification of triterpenoids.

[3] = tested on: NHEKs; experiment: Cell growth test (XTT-based cell viability assay); design: species or system human; settings: ursolic acid 0.5 and 5 μM, tumulosic acid 1 and 10 μM; 24 h; with or without 10 μM cycloheximide
[4] = target: T2, recombinant human pro-chymotrypsin C activated by trypsin (Chymotrypsin C) (Homo sapiens, UniProt Q99895); experiment: Chymotrypsin C enzymatic assay (Suc-A-A-P-F-AMC); format: biochemical; settings: for IC50: 0.78-100 μM, linear interpolation
T2 construct: purchased R & D Systems Inc
Description: KLK5, KLK7, trypsin, and chymotrypsin C activities were evaluated according to the following methods supplied by R & D Systems Inc. (Minneapolis, MN, USA). The enzyme activity-dependent increase in the relative fluorescent unit (RFU) was measured, and the percentage of inhibition was calculated based on the formula: (1 − (A − B)/(C − B)) × 100, where A = RFU of test samples with enzymes, B = basal RFU without enzymes, and C = RFU of vehicle controls with enzymes. […] Activated chymotrypsin C (final 34.7 nM) was preincubated with test samples for 5 min, followed by the addition of peptide substrate. After incubating for 60 min, RFU was measured at Ex 380 nm/Em 460 nm.

[5] = target: T3, recombinant human pro-KLK7 activated by thermolysin (Kallikrein 7) (Homo sapiens, UniProt P49862); experiment: KLK7 enzymatic assay (fluorogenic peptide substrate II); format: biochemical
T3 construct: purchased R & D Systems Inc

[6] = tested on: recombinant human trypsin; experiment: Trypsin enzymatic assay (Boc-V-P-R-AMC); format: biochemical; settings: for IC50: 0.78-100 μM, linear interpolation
Description: KLK5, KLK7, trypsin, and chymotrypsin C activities were evaluated according to the following methods supplied by R & D Systems Inc. (Minneapolis, MN, USA). The enzyme activity-dependent increase in the relative fluorescent unit (RFU) was measured, and the percentage of inhibition was calculated based on the formula: (1 − (A − B)/(C − B)) × 100, where A = RFU of test samples with enzymes, B = basal RFU without enzymes, and C = RFU of vehicle controls with enzymes.
To measure the trypsin activity, enzymatic reaction was performed at room temperature in 100 mM NaH2PO4 buffer (pH 8.0) containing 0.25 μg/mL recombinant human trypsin (Wako Pure Chemical Industries), 100 μM of Boc-V-P-R-AMC Fluorogenic Peptide Substrate, and 1.1% DMSO at final concentrations. […] was preincubated with test samples for 5 min, followed by the addition of peptide substrate. After incubating for 1 min, RFU was measured at Ex 380 nm/Em 460 nm. Leupeptin hemisulfate (42.1 μM) was used as a positive control.

[7] = tested on: LL-37 production in normal human epidermal keratinocytes (NHEKs); format: cell-based
[8] = 10 μM test compound, KLK5 8.1 nM, substrate 100 μM, mean ± SEM of triplicate
[9] = 10 μM test compound, KLK5 8.1 nM, substrate 100 μM, mean ± SEM of triplicate, read-out: Anti-KLK5 Activity % Inhibition
[10] = dose-response experiment of Figure 2, read-out: IC50 anti-KLK5 activity
[11] = 2 g/kg, single oral Jumihaidokuto 2 g/10 mL/kg
[12] = single oral Jumihaidokuto 2 g/10 mL/kg

T2 sequence (Q99895 30-268, other chains not shown): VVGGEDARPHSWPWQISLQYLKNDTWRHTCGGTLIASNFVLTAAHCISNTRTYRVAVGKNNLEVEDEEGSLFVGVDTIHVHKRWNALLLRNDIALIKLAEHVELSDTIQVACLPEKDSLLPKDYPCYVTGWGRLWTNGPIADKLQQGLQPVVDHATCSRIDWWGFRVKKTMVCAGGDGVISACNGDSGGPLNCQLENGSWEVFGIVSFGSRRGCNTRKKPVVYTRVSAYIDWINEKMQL
T3 sequence (P49862 30-253): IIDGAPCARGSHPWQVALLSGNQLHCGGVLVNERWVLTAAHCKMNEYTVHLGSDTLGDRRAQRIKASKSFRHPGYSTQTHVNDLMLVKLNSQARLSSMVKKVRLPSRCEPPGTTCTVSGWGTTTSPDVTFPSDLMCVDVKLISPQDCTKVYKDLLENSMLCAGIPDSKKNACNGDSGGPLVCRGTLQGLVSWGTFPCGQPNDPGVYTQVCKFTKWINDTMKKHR

SMILES: C=C(CC[C@@H](C(=O)O)C1[C@H](O)C[C@@]2(C)C3=CCC4C(C)(CCC(OC(C)=O)C4(C)C)C3=CCC12C)C(C)C (stereo partly drawn) [Dehydropachymic acid]
inhibition at 10 µM [1, 9]: 33.9 ± 3.7%

SMILES: C=C(CC[C@@H](C(=O)O)[C@H]1[C@H](O)C[C@@]2(C)C3=CC[C@H]4C(C)(C)[C@@H](O)CC[C@]4(C)C3=CC[C@]12C)C(C)C [Dehydrotumulosic acid]
inhibition at 10 µM [1, 9]: -46.2 ± 2.7%

SMILES: C=C(CC[C@@H](C(=O)O)[C@H]1CC[C@@]2(C)C3=C(CC[C@]12C)[C@@]1(C)CC[C@H](O)C(C)(C)[C@@H]1CC3)C(C)C [Eburicoic acid]
inhibition at 10 µM [1, 9]: -51 ± 3%

SMILES: CC(=O)N[C@@H](CC(C)C)C(=O)N[C@@H](CC(C)C)C(=O)N[C@H](C=O)CCCN=C(N)N.CC(=O)N[C@@H](CC(C)C)C(=O)N[C@@H](CC(C)C)C(=O)N[C@H](C=O)CCCN=C(N)N.O=S(=O)(O)O [Leupeptin hemisulfate, reference compound]
Anti-KLK5 Activity % Inhibition ([1]; 42.1 μM (positive control), KLK5 8.1 nM, mean ± SEM of triplicate): 96.9 ± 0.1%
Anti-KLK5 Activity % Inhibition ([1]; 42.1 μM (positive control), KLK5 8.1 nM, mean ± SEM of triplicate, listed as leupeptin hemisulfate): completely inhibited

SMILES: C=C(CC[C@@H](C(=O)O)[C@H]1[C@H](O)C[C@@]2(C)C3=C(CC[C@]12C)[C@@]1(C)CC[C@H](OC(C)=O)C(C)(C)[C@@H]1CC3)C(C)C [Pachymic acid]
inhibition at 10 µM [1, 9]: 56.2 ± 1.5%
IC50 [1, 10]: 5.9 µM
Cmax [2, 11]: 2.1 ng/mL
time of Cmax [2, 12]: 6 h

SMILES: C[C@H]1O[C@@H](O[C@H]2CC[C@@]3(C)[C@@H](CC[C@]4(C)[C@@H]3C=C[C@]35OC[C@@]6(CCC(C)(C)C[C@H]63)[C@@H](O)C[C@]54C)[C@]2(C)CO)[C@H](O)[C@@H](O[C@@H]2O[C@H](CO)[C@@H](O)[C@H](O)[C@H]2O)[C@H]1O [Saikosaponin a]
inhibition at 10 µM [1, 9]: 4.3 ± 0.7%

SMILES: CC1OC(OC2CCC3(C)C(CCC4(C)C3C=CC35OCC6(CCC(C)(C)CC63)C(O)CC45C)C2(C)CO)C(O)C(OC2OC(CO)C(O)C(O)C2O)C1O (stereo not drawn) [Saikosaponin d]
inhibition at 10 µM [1, 9]: -10.4 ± 3.5%

SMILES: C=C(CC[C@@H](C(=O)O)[C@H]1[C@H](O)C[C@@]2(C)C3=C(CC[C@]12C)[C@@]1(C)CC[C@H](O)C(C)(C)[C@@H]1CC3)C(C)C [Tumulosic acid]
cytotoxic effect on cell proliferation [3]: No cytotoxic effect
Inhibition % at 100 μM, Chymotrypsin C ([4]; 100 μM): 4.1 ± 5.2%
inhibition at 100 µM ([4]; 100 μM): 4%
IC50 [4]: > 100 µM
inhibition at 100 µM [5]: 19.5 ± 1.5%
IC50 ([5]; 0.78-100 μM, linear interpolation): > 100 µM
Inhibition % at 100 μM, Trypsin [6]: 73.2 ± 1.6%
IC50 ([6]; listed as Tumulosic Acid): 45.3 µM
IC50 ([6]; listed as tumulosic acid): 10.5 µM
amount of LL-37 in NHEK lysates [7]: decreased
inhibition at 10 µM [1, 9]: 36 ± 1.9%
inhibition at 100 µM ([1]; 100 μM, read-out: Inhibition % at 100 μM, Kallikrein 5): 58.7 ± 0.2%
IC50 [1, 10]: 19.3 µM
IC50 ([1]; selectivity experiment of Table 2, 0.78-100 μM, linear interpolation, read-out: IC50 Kallikrein 5): 14.8 µM
Cmax [2, 11]: 116 ng/mL
Cmax ([2]; single oral Jumihaidokuto 2 g/kg, converted from 116.1 ng/mL): 238 nM
time of Cmax [2, 12]: 2 h

SMILES: C[C@H]1[C@H](C)CC[C@]2(C(=O)O)CC[C@]3(C)C(=CC[C@@H]4[C@@]5(C)CC[C@H](O)C(C)(C)[C@@H]5CC[C@]43C)[C@H]12 [Ursolic acid]
inhibition at 100 µM ([4]; 100 μM): 35.3 ± 2.9%
IC50 [4]: > 100 µM
Inhibition % at 100 μM, Trypsin [6]: 76.9 ± 3.5%
IC50 ([6]; listed as Ursolic Acid): 14.8 µM
IC50 ([6]; listed as ursolic acid): 10.5 µM
amount of LL-37 in NHEK lysates ([7]; ursolic acid 0.5 and 5 μM, tumulosic acid 1 and 10 μM, 23 h, in the presence of 10 μM cycloheximide): decreased
inhibition at 10 µM ([1]; read-out: Anti-KLK5 Activity % Inhibition): 54.6 ± 1.3%

The remaining lines, values ahead:

inhibition at 30 µM ([1]; 30 μM, KLK5 8.1 nM, substrate 100 μM, mean ± SEM of triplicate, read-out: Anti-KLK5 Activity % Inhibition): 16 ± 1.2%
SMILES: CC1(C(=O)O)CCC2(C)CCC3(C)C(=CC(=O)C4C5(C)CCC(O)C(C)(C)C5CCC43C)C2C1 (stereo not drawn) [18β-Glycyrrhetinic acid]

Anti-KLK5 Activity % Inhibition [1, 8]: did not influence the KLK5 activity
inhibition at 10 µM [1, 9]: 5.5 ± 2.5%
SMILES: C=C(C)[C@@H]1CC[C@]2(C(=O)O)CC[C@]3(C)[C@H](CC[C@@H]4[C@@]5(C)CC[C@H](O)C(C)(C)[C@@H]5CC[C@]43C)[C@@H]12 [Betulinic acid]

Anti-KLK5 Activity % Inhibition [1, 8]: did not influence the KLK5 activity
inhibition at 10 µM [1, 9]: -1.8 ± 2.8%
SMILES: C[C@@H]1C[C@H]2[C@@H]3CCC4=CC(=O)C=C[C@]4(C)[C@@]3(F)[C@@H](O)C[C@]2(C)[C@@]1(O)C(=O)CO [Dexamethasone, reference compound]

IC50 [1, 10]: 6.4 µM
SMILES: CC1(C)CC[C@]2(C(=O)O)CC[C@]3(C)C(=CC[C@@H]4[C@@]5(C)CC[C@H](O)C(C)(C)[C@@H]5CC[C@]43C)[C@@H]2C1 [Oleanolic acid]

inhibition at 10 µM [1, 9]: 8.8 ± 2%
SMILES: CC1(C)CCC2(C(=O)O)C(C1)C1=CCC3C4(C)CC(O)C(O)C(CO)(CO)C4CCC3(C)[C@]1(C)C[C@H]2O (stereo partly drawn) [Platycodigenin]

inhibition at 10 µM [1, 9]: -6 ± 2.9%
SMILES: C[C@@H]1O[C@@H](O[C@H]2[C@H](OC(=O)[C@]34CCC(C)(C)C[C@H]3C3=CC[C@@H]5[C@@]6(C)C[C@H](O)[C@H](O[C@@H]7O[C@H](CO)[C@@H](O)[C@H](O)[C@H]7O)C(CO)(CO)[C@@H]6CC[C@@]5(C)[C@]3(C)C[C@H]4O)OC[C@H](O)[C@@H]2O)[C@H](O)[C@H](O)[C@H]1O[C@@H]1OC[C@@H](O)[C@H](O[C@@H]2OC[C@](O)(CO)[C@H]2O)[C@H]1O [Platycodin D]

Anti-KLK5 Activity % Inhibition [1, 8]: did not influence the KLK5 activity
inhibition at 10 µM [1, 9]: 5.5 ± 2.3%
SMILES: CC1(C)CCC2(C(=O)O)C(O)CC3(C)C(=CCC4C5(C)CC(O)C(O)C(C)(CO)C5CCC43C)C2C1 (stereo not drawn) [Polygalacic acid]

Anti-KLK5 Activity % Inhibition [1, 8]: 24.3 ± 2.6%
SMILES: CC1(C)CCC2(CO)C(=C3C=CC4C5(C)CCC(O)C(C)(CO)C5CCC4(C)C3(C)CC2O)C1 (stereo not drawn) [Saikogenin A]

Anti-KLK5 Activity % Inhibition [1, 8]: −1.5 ± 3.6%
SMILES: CC1(C)CCC2(CO)C(=C3C=CC4C5(C)CCC(O)C(C)(CO)C5CCC4(C)C3(C)CC2O)C1 (stereo not drawn) [Saikogenin D]

inhibition at 10 µM [1, 9]: 39.6 ± 1.6%
IC50 [1, 10]: 14.4 µM
SMILES: C[C@H]1O[C@@H](O[C@H]2CC[C@@]3(C)[C@@H](CC[C@]4(C)[C@@H]3C=CC3=C5CC(C)(C)CC[C@]5(CO)[C@@H](O)C[C@]34C)[C@]2(C)CO)[C@H](O)[C@@H](O[C@@H]2O[C@H](CO)[C@@H](O)[C@H](O)[C@H]2O)[C@H]1O [Saikosaponin b1]

Anti-KLK5 Activity % Inhibition [1, 8]: 21.1 ± 1.4%
SMILES: CC1OC(OC2CCC3(C)C(CCC4(C)C3C=CC3=C5CC(C)(C)CCC5(CO)C(O)CC34C)C2(C)CO)C(O)C(OC2OC(CO)C(O)C(O)C2O)C1O (stereo not drawn) [Saikosaponin b2]

inhibition at 10 µM [1, 9]: 4.1 ± 1.6%
SMILES: CC1OC(OC2C(COC3OC(CO)C(O)C(O)C3O)OC(OC3CCC4(C)C(CCC5(C)C4C=CC46OCC7(CCC(C)(C)CC74)[C@@H](O)C[C@@]56C)C3(C)C)C(O)C2O)C(O)C(O)C1O (stereo partly drawn) [Saikosaponin c]
